# Source: PMC12040169 (PLOS Biology, 2025)
# Assay: in vitro
# Conditions: human, hela cells, % viability
row,Compound,"viability at 28.5 h, 10 µM"
1,O=C(O)c1ccccc1-c1ccccc1C(=O)Nc1cccc(-c2nc3ccccc3o2)c1 [CBK262767],103%
2,O=C(Nc1ccc(S(=O)(=O)Nc2ncccn2)cc1)c1ccc(Cl)c([N+](=O)[O-])c1 [CBK263739],101%
3,CC(=O)NCC(=O)Nc1cnc(-c2cccc(C(F)(F)F)c2)c(-c2cccnc2)n1 [CBK036809],103%
4,Cn1c(=O)c2ncn(CC(=O)Nc3ccc(N4CCN(Cc5ccccc5)CC4)cc3)c2n(C)c1=O [CBK266875],99.7%
5,Fc1ccc(COc2ccc(Cl)cc2CNCc2ccccn2)cc1 [CBK269899C],85.5%
6,O=S(=O)(Nc1ccc(C(F)(F)F)cc1Cl)c1cc(Br)c(Cl)s1 [CBK057196],78.9%
7,O=C(c1cncc(O)c1)N1C2CCC1CC(c1ccc(F)cc1)C2 (stereo not shown) [CBK283764],96.4%
8,CCN(CC)C(=O)c1[nH]c2ccccc2c1NS(=O)(=O)c1ccc(C(F)(F)F)cc1[N+](=O)[O-] [CBK050109],103%
9,Cc1cc(C)n(CCNC2CCN(c3ccccc3C)CC2)c(=O)n1 [CBK306848],89.1%
10,OCCN1CCN(c2nc(-c3ccc4c(c3)OCO4)cn3ccnc23)CC1 [CBK037443],99.1%
11,COCc1ccc(C(=O)NCC2CCCOC2)o1 (stereo not shown) [CBK282188],83.3%
12,CC(C)NC(=O)C1CCCN(c2nc3ccccc3n2C)C1 (stereo not shown) [CBK282373],109%
13,Cc1ccc(-c2nc(Nc3ccc(Br)cc3)sc2CC(=O)O)cc1 [CBK264251],101%
14,O=C(/C=C(\c1ccccc1)n1cncn1)c1ccc(Cl)cc1 [CBK262089],90.7%
15,O=C(COC(=O)c1cc(-c2ccc(Cl)cc2)nc2ccccc12)c1cccc([N+](=O)[O-])c1 [CBK293923],83%
16,O=C(O)COc1ccc(NC(=O)Cc2ccc([N+](=O)[O-])cc2)cc1 [CBK268573],104%
17,O=C(C1CCCC1)N1C[C@@H]2CCCCN(Cc3cccnc3)[C@@H]2C1 [CBK285492],101%
18,Fc1cccc(SCc2ccccc2)c1 [CBK002912],117%
19,Cc1nc2c(c(=O)[nH]1)CCN(Cc1cccc(Oc3ccccc3)c1)C2 [CBK283989],81.9%
20,CCOC(=O)C1CCCN(C(=O)Cn2ccc3sccc3c2=O)C1 (stereo not shown) [CBK304099],100%
21,Cc1ccc2c(NC(=O)c3cc4c([nH]c3=O)CCC4)c(C)ccc2n1 [CBK281568],93%
22,O=C(O)c1ccc(OCCN2C3=NCCN3c3ccccc32)cc1 [CBK286629],93%

row,Compound,"viability at 28.5 h, 10 µM"
1,CC1CCN(C(=O)Cn2ncn3c(cc4ccsc43)c2=O)CC1 [CBK284190],101%
2,COc1ccc(-c2cnc(N)nc2C2CCCN(C(=O)CCCc3ccccc3)C2)cc1 (stereo not shown) [CBK286091],94.4%
3,CC(C)OC(=O)N1CCN(C(=O)c2cn(Cc3cccc(S(C)(=O)=O)c3)nn2)CC1 [CBK160994T],88.5%
4,C[C@H](NC(=O)N1CCN(C(=O)c2c[nH]c3ccccc23)CC1)C(=O)O [CBK286581],84.5%
5,Clc1ccc2nc(SCc3csc(Nc4ccccc4)n3)oc2c1 [CBK268269],100%
6,O=C1CC(c2ccco2)CC(=O)C1=CNCCN1CCN(C(=O)Nc2ccc(Cl)cc2)CC1 (stereo not shown) [CBK264743],80.2%
7,O=C(O)C1CC=CCC1C(=O)NCc1ccncc1 (stereo not shown) [CBK265481],89.2%
8,COc1ccccc1OCC(=O)Nc1cc(C)nc2ccccc12 [CBK122728],97.3%
9,c1ccc2cc(-c3cnc(N4CCOCC4)c4nccn34)ccc2c1 [CBK091307],94.1%
10,CSCCOc1cncc(N2CCCC2)n1 [CBK115761],101%
11,Cc1[nH]c(=O)[nH]c(=O)c1CC(=O)N1CCc2ncc(Cl)cc2C1 [CBK286302],101%
12,Cc1nn(C)cc1C(=O)N1CCC(c2cc3c(C)cccc3cn2)CC1 [CBK282231],103%
13,Cc1cc(C)c2nc(-c3ccccn3)cc(C(=O)Nc3cccc(Cn4cccn4)c3)c2c1 [CBK267723],90.4%
14,CCC(NC(=O)CCc1cccnc1)c1cn2cccnc2n1 (stereo not shown) [CBK307247],81.7%
15,CC(c1ccccc1)N1CCn2c(nc3cc(NC(=O)COc4ccccc4)ccc32)C1 (stereo not shown) [CBK268033],105%
16,O=C(Cc1ccsc1)N1CCC2(CCCNC2)C1 (stereo not shown) [CBK137153C],85.4%
17,COc1ccc(C2=NN(C(=O)CCC(=O)O)C(c3cccs3)C2)cc1OC (stereo not shown) [CBK266656],118%
18,CN1CCC(N2CCN(C(=O)c3ccc4c(c3)no[n+]4[O-])CC2)CC1 [CBK149095],92.6%
19,CC(C)C(Nc1nc2ncn(Cc3ccccc3)c2c(=O)[nH]1)C(=O)O (stereo not shown) [CBK261685],91.2%
20,Cc1nc2ccccc2c2c1C(=O)N(c1cccc(C(=O)OCC(=O)c3ccccc3Cl)c1)C2=O [CBK265505],98.5%
21,COc1ccccc1N1CCN(C(=O)N(CCN)CCC(C)c2ccccc2)CC1 (stereo not shown) [CBK002137C],88.7%
